Data from ChEMBL document CHEMBL1201862, “PubChem BioAssay data set” (2004).
Active and inactive are the calls of the source.

Legend:
[1] = biological target: T1, Sentrin-specific protease 8 (Homo sapiens, UniProt Q96LD8); assay type: functional;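 note: luminescence read-out of SENP8 inhibition, dose-response confirmation following an ultra-high-throughput screen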
T1 sequence (Q96LD8 whole entry): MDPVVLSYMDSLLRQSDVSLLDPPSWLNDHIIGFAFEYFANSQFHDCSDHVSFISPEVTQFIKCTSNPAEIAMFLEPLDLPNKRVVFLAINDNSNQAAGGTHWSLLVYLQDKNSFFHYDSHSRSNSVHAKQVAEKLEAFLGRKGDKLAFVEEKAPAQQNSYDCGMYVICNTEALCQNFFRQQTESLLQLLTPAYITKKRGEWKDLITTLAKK

Caspase-3 = biological target: T2, Caspase-3 (Homo sapiens, UniProt P42574); assay type: functional;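 note: Dose-response selectivity test against caspase-3 for candidate inhibitors of sentrin-specific proteases (SENPs)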
T2 sequence (P42574 whole entry): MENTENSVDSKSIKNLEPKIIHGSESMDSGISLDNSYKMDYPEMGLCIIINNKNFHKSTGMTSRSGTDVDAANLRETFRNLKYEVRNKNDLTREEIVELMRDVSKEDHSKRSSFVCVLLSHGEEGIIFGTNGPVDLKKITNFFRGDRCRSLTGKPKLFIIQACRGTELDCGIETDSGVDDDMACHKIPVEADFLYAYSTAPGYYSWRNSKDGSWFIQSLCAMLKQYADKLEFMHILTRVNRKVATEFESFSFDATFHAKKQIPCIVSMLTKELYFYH

[2] = biological target: T3, Sentrin-specific protease 7 (Homo sapiens, UniProt Q9BQF6); assay type: functional;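 note: Luminescence-based dose-response confirmation of ultra-high-throughput screening hits, measuring inhibition of SENP7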
T3 sequence (Q9BQF6 whole entry): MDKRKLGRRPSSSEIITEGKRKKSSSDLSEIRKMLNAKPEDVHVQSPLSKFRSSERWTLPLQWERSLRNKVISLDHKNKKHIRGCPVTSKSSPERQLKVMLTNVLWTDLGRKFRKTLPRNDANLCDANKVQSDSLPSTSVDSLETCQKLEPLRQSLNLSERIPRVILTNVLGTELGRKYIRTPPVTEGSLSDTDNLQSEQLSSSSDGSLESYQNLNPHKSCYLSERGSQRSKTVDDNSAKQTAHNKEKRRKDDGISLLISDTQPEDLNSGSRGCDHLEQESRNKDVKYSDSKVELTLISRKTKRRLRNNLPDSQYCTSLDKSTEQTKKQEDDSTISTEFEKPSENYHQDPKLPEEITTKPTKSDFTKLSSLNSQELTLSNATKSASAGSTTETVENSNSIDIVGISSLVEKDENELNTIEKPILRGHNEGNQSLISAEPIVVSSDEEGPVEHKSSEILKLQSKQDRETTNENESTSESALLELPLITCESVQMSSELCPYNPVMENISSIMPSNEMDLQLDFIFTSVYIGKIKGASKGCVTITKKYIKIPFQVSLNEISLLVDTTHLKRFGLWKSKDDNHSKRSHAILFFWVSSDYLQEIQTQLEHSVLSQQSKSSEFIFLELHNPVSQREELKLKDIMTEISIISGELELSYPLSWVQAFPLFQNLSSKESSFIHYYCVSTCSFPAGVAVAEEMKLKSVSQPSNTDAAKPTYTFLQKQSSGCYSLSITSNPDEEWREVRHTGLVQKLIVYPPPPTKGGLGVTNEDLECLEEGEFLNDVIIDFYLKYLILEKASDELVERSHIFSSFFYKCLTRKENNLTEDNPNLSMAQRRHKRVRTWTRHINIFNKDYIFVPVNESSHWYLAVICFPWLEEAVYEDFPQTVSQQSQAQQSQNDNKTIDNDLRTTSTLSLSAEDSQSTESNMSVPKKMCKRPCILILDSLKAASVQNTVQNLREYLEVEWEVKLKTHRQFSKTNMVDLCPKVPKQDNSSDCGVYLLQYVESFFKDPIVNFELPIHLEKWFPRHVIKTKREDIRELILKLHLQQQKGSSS

[3] = biological target: T4, Sentrin-specific protease 6 (Homo sapiens, UniProt Q9GZR1); assay type: functional;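 note: Luminescence-based dose-response confirmatory assay of SENP6 inhibition, following up an ultra-high-throughput screen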
T4 sequence (Q9GZR1 whole entry): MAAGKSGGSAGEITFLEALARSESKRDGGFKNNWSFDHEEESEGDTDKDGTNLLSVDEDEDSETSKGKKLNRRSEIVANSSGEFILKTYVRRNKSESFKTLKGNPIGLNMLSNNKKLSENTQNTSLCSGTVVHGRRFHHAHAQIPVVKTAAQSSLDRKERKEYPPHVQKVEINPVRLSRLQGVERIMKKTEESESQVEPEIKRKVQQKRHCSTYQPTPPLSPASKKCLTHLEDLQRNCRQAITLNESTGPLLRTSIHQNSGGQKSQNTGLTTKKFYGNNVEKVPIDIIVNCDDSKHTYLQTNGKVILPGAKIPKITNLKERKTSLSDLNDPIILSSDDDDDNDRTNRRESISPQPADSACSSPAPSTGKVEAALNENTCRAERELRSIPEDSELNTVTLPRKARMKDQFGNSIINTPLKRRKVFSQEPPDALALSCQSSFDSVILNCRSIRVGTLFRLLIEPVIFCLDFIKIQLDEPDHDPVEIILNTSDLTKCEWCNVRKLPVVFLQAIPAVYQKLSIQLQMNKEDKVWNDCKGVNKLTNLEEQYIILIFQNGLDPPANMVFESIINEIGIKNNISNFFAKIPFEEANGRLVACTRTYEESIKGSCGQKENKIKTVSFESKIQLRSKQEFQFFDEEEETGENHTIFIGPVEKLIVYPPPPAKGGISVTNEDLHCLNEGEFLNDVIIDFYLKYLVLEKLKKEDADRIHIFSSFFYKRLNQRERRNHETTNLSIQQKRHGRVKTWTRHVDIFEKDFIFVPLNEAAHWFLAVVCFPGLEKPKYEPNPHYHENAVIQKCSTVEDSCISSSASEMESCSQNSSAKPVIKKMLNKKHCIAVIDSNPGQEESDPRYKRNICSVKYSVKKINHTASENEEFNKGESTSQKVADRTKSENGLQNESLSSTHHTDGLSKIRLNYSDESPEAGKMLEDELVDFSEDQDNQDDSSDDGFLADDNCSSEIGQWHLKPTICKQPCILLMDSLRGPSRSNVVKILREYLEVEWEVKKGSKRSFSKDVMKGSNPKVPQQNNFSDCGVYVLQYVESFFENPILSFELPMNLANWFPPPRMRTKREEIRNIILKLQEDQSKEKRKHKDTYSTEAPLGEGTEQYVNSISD

HEK293 = assay: EBV LMP1 TES2 canonical NF-kB signalling blockers – cell-based, HEK293, luciferase, cherry-pick, dose response (AID 588343); assay type: functional; details: Homo sapiens
Protein skinhead-1 = biological target: T5, Protein skinhead-1 (Caenorhabditis elegans, UniProt P34707); assay type: functional
T5 sequence (P34707 whole entry): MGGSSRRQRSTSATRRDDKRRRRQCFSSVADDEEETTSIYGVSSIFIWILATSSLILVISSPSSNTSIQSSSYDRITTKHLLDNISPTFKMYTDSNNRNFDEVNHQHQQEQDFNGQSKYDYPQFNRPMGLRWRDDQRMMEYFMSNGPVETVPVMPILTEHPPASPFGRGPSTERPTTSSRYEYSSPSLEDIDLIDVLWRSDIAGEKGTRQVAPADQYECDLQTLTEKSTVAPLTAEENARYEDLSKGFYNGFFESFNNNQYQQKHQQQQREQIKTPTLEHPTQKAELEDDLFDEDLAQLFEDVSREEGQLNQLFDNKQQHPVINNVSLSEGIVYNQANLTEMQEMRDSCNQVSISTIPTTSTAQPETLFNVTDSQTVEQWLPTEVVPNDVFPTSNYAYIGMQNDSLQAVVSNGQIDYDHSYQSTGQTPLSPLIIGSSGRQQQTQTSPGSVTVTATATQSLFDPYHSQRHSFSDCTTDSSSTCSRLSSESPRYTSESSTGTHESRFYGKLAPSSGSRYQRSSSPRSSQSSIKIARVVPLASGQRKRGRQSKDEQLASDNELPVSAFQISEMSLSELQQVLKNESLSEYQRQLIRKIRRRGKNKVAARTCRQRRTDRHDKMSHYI

[4] = reduction of Shn3 3'UTR-driven luciferase in osteoblasts – cell-based, Clone20 osteoblasts, firefly luciferase, cherry-picked, dose response (AID 624132); assay type: functional;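 note: firefly luciferase luminescence from reporter carrying the Shn3 3'UTR in osteoblasts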
[5] = non-specific 3'UTR reporter inhibition in Clone20-Shn3RL – cell-based, Renilla luciferase, cherry-picked, counter-screen for Shn3 inhibitor project, dose response (AID 624133); assay type: functional
Cytochrome P450 2C9 = Cytochrome P450 2C9 (Homo sapiens, UniProt P11712)
Sequence of Cytochrome P450 2C9 (P11712 whole entry): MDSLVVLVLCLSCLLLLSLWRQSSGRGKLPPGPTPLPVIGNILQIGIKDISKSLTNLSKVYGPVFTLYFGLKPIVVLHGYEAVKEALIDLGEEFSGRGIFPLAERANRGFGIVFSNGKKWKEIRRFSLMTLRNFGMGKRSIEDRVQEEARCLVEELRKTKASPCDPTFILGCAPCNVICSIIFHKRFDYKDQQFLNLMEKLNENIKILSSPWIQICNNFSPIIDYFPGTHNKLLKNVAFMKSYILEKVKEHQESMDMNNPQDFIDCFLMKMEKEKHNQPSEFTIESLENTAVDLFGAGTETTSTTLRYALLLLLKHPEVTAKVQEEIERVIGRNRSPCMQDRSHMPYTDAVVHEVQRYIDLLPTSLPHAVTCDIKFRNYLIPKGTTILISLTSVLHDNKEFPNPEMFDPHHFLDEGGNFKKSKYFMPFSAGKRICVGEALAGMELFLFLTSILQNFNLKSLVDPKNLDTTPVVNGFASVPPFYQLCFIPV

IC50 (Caspase-3) | IC50 [2] | IC50 [3] | SMILES | IC50 [1] | AC50 (HEK293) | IC50 (Protein skinhead-1) | AC50 [4] | AC50 [5] | AC50 (Cytochrome P450 2C9)
20.3 µM (active) | 8.26 µM (active) | 33.5 µM (active) | O=C(Nc1cccs1)Nc1ccccc1Br | 57.6 µM (active) | – | – | – | – | –
– | – | – | Cc1ccc(-c2nc3cccnc3o2)cc1NC(=O)COc1ccc(C(C)(C)C)cc1 | – | 36.3 µM (active) | > 100 µM (inactive) | 10.8 µM (active) | 14.6 µM (active) | –
– | – | – | Cc1cccc(CNc2ncnc3ccc(-c4ccoc4)cc23)c1 | – | 35.1 µM (active) | – | – | – | 1 µM (inconclusive)
